“And” between values parts separate entries of the source, which are not always exact repeats. Identical values can stand only once.
Columns and labels:
[1] = tested on: Hepa1-6 murine hepatoma cells; assay: Colony formation assay (clonogenic survival, 7 days); type: cell-based; conditions: Mus musculus, Hepa1-6, 168 h, read-out: Hepa1-6 (IC50), anti-clonogenic activity
Procedure: (§1) Colony formation assay. Hep3B and Hepa1-6 cells were seeded in 12-well plates at a cell density of 1000 and 500 cells/well, respectively. On day 2, media in each well was aspirated and replaced with 1000 μl of fresh complete media and cells were treated with or without the respective drugs in an increasing concentration followed by the incubation of the cells for 7 days in an incubator.
(§2) On day 9, the media in each well was aspirated and cells were fixed with 10% formalin (500 μl) for 10 minutes at room temperature. Formalin was aspirated and the plates were washed with 1×PBS and stained with crystal violet for another 10 minutes. After 10 minutes of staining, crystal violet was […] the cells, rinsed with tap water for three times and the plates were dried overnight. Next day, colonies (>50 cells) were counted and analyzed.
(§3) Statistical tests. Results were indicated as mean±standard deviation (SD). All line graphs were prepared using Graph Pad Prism 8 software. Proliferation and clonogenics IC50 values were calculated using a non-linear regression model in Graph pad Prism 8.

[2] = tested on: Hep3B human hepatocarcinoma cells; assay: as above; type: cell-based; conditions: 168 h, read-out: Hep3B (IC50), anti-clonogenic activity
Procedure: as §1, §2, §3

[3] = tested on: Il-1b mRNA; assay: Il-1b mRNA by RT-qPCR; type: cell-based
[4] = tested on: tumor cancer pathway gene panel; assay: Nanostring nCounter Cancer panel gene expression in tumor of DEN-injected mice; type: in vivo, mouse; conditions: 100 mg/kg, 4 weeks
Procedure: Nanostring Analysis. RNA was extracted from paired liver and tumor tissue from vehicle, Compound I-1 (100 mg/kg) and Compound I-32 (100 mg/kg) treated mice using an RNeasy kit (Qiagen, Calif., USA) as per manufacturer's protocol. All RNA samples passed the BioAnalyzer quality control test. The expression of target genes in liver and tumor were analyzed using the nCounter Fibrosis and Cancer Panel (NanoString Technologies, Inc., WA, USA), respectively according to manufacturer's protocol at the McMaster Genomics Facility. Technical and biological normalization against global geometric mean was performed in nSolver 4.0 software (NanoString Technologies). Technical normalization was performed in the nSolver software (version 4.0.70) by normalizing sample target raw counts to the geometric mean of positive control spike-ins. […] Pathway scores were calculated as the first principal component of the normalized expression values for all genes in each pathway and samples were compiled according to experimental groups to determine average pathway scores. Statistical significance was calculated between experimental groups using multiple t-tests and p-values were corrected for multiple comparisons using Benjamin-Hochberg false discovery rate. […]

[5] = tested on: bone marrow derived macrophages (BMDMs); assay: LPS-induced glycolysis in bone marrow derived macrophages (Seahorse); type: cell-based; conditions: BMDMs serum-starved 2 hours, LPS (10 ng/mL)+I-1 for 4 hours; Seahorse bioanalyzer
Procedure: Differentiated bone marrow derived macrophages were serum-starved for 2 hours then treated with vehicle (Control), LPS (10 ng/mL) or LPS+ACLYi (I-1) for 4 hours. Glycolytic rate was assessed using Seahorse bioanalyzer.

[6] = biological target: T1, Human ACC2 (Homo sapiens, UniProt O00763); assay: ACC2 enzymatic assay (ADP-Glo); type: biochemical; conditions: recombinant human ACC2 1 nM, 10 μM ATP, 10 μM acetyl CoA; Run 1-3; read-out: Compound IC50 (M) ACC2
T1 construct: FLAG (C); His (C); purchased BPS Biosciences 50201; host or cells: Baculovirus infected Sf9 cells
Procedure: Human ACC1 (Cat#50202 Lot #120830) and ACC2 (Cat #50201 Lot #160217) were obtained from BPS Biosciences, San Diego, Calif. 92121. Human ACC1 had C-terminal flag and His-tags with a MW of 270 KDa after purification from Baculovirus infected Sf9 cell expression system and came as a solution in 50 mM Tris-HCl, pH 8.0, 500 mM NaCl, 10% glycerol, 1 mM DTT, 100 μg/ml FLAG peptide with 70% purity. The stock concentration was 0.25 mg/ml corresponding to 0.926 μM. Human ACC2 was also purified from Baculovirus infected Sf9 expression system. […] The stock concentration was 0.1 mg/ml corresponding to 0.36 μM. The assay buffer for measuring the activity of ACC contained: 30 mM HEPES (pH 7.4), 2 mM MgCl2, 0.01% Brij35, 2 mM DTT, 1% DMSO (solvent for compound). For ACC1 and ACC2 assays, the following concentrations of substrate and cofactors were used: 12 mM NaHCO3, 10 μM acetyl CoA, 10 μM ATP, and 2 mM K-citrate. The recombinant human enzyme was used at 5 nM for ACC1 and 1 nM for ACC2. In brief, enzyme alone in the above buffer without substrate was used for background. All test materials were dissolved in 100% DMSO using acoustic technology (Echo550). The prepared solution was preincubated for 15 min followed by the addition of 5 μL/well of ADP standard. ATP was then added to start the reaction. The assay contents were spun and briefly shaken followed by incubation at room temperature for 1 h. At the end of completion of assay, 5 μL of ADP-Glo was added to each well to stop the reaction. The contents were mixed, spun and incubated at room temperature for 40 min followed by the addition of 10 μL/well of ADP detection reagent. The contents were spun, mixed and covered with plastic to measure luminescence. […] The light generated, measured in a luminometer, correlates to the amount of ADP generated in the ACC assay, which is indicative of ACC activity.
The enzyme concentrations for ACC1 and ACC2 were 5 nM and 1 nM, respectively.
Data represent nM or μM ADP produced, % Activity (relative to no inhibitor controls), and curve fits were performed by GraphPad Prism software. […]

T1 sequence (O00763 whole entry): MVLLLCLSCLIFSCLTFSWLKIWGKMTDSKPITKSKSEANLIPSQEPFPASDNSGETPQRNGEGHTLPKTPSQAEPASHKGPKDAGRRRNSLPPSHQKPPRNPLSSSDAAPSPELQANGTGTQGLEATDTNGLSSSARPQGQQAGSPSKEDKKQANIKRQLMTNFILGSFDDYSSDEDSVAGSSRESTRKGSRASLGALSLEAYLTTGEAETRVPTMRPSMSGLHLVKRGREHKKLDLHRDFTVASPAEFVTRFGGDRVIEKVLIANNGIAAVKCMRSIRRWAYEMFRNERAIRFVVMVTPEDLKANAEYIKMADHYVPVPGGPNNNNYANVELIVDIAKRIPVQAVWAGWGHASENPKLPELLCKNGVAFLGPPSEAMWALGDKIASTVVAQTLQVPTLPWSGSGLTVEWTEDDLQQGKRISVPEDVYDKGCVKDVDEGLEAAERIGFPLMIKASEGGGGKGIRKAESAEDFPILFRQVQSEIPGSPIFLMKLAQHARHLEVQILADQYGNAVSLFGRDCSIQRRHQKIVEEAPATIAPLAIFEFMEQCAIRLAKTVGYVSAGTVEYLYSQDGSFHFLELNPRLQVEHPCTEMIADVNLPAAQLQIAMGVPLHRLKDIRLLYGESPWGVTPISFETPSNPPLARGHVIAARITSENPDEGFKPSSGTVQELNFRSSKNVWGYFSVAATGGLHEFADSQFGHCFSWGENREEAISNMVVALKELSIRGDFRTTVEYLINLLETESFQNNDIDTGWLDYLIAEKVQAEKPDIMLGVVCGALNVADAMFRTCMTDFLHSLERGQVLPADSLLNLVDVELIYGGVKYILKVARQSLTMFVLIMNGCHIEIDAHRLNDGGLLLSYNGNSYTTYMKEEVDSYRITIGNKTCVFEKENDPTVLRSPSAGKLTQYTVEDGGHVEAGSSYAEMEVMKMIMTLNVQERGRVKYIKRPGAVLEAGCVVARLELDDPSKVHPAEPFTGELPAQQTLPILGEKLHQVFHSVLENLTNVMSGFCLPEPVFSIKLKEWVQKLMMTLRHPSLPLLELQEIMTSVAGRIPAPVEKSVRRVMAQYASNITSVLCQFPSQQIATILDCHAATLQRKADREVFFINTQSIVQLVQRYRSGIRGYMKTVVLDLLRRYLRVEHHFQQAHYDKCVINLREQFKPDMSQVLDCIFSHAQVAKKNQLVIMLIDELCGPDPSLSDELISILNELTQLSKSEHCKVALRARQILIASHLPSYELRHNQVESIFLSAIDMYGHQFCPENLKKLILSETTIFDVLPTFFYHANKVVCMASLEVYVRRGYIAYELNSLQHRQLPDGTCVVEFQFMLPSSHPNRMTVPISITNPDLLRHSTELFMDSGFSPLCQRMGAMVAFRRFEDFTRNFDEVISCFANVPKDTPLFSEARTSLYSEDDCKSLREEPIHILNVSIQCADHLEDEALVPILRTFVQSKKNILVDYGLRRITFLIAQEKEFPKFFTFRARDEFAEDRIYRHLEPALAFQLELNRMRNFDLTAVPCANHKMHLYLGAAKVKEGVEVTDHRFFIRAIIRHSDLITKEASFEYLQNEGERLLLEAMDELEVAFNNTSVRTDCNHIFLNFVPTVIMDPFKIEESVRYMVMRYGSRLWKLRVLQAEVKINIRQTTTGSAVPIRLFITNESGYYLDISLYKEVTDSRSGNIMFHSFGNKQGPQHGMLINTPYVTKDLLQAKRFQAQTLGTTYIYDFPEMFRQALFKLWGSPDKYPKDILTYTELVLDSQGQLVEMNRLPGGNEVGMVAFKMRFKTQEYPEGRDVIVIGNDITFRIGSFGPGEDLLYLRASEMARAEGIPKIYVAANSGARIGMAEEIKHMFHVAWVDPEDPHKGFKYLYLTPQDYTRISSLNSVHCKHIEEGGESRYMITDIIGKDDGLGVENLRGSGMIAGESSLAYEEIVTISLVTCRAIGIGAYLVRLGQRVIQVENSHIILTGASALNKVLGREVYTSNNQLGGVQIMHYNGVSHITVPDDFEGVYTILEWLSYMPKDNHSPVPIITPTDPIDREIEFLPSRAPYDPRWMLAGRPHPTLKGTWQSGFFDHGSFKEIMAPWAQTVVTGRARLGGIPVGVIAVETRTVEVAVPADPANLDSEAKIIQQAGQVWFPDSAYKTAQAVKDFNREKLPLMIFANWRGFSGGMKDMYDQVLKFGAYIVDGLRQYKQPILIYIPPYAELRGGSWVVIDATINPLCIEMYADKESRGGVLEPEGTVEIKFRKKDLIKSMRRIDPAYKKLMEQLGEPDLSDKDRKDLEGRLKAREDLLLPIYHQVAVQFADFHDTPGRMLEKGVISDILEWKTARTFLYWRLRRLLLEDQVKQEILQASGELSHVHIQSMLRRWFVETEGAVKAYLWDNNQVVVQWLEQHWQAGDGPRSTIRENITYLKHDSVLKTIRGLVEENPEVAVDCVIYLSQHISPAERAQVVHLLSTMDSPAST

Row | Structure (SMILES) | IC50 [1] [µM] | IC50 [2] [µM] | marker of inflammation, Il-1b mRNA [3] | effects on tumor gene expression pathways related to cancer progression and survival [4] | LPS-induced glycolysis (glycolytic rate) [5] | IC50 [6]
1 | CC(C)(CCCCc1cccc(CCCCC(C)(C)C(=O)O)c1)C(=O)O [Compound I-32, 6-[3-(5-carboxy-5-methylhexyl)-phenyl]-2,2-dimethylhexanoic acid] | 58.9 | 40.8 |  |  |  | 
2 | CC(C)(CCCCc1ccc(CCCCC(C)(C)C(=O)O)cc1)C(=O)O [Compound I-1, 6-[4-(5-carboxy-5-methylhexyl)-phenyl]-2,2-dimethylhexanoic acid] | 67.6 | 50.7 | suppression | exerted pronounced effects on gene expression pathways related to cancer progression and survival | suppression | 
3 | CC(C)(CCCCc1cccc(CCCCC(C)(C)C(=O)SCCNC(=O)CCNC(=O)[C@H](O)C(C)(C)COP(=O)(O)OP(=O)(O)OC[C@H]2O[C@@H](n3cnc4c(N)ncnc43)[C@H](O)[C@@H]2OP(=O)(O)O)c1)C(=O)O [Compound I-32-CoA, 6-[3-(5-Carboxy-5-methylhexyl)-phenyl]-2,2-dimethylhexanoic acid Coenzyme A Ester] |  |  |  |  |  | 5.02e-06 M and 4.22e-06 M and 3.33e-06 M
4 | CC(C)(CCCCc1ccc(CCCCC(C)(C)C(=O)SCCNC(=O)CCNC(=O)[C@H](O)C(C)(C)COP(=O)(O)OP(=O)(O)OC[C@H]2O[C@@H](n3cnc4c(N)ncnc43)[C@H](O)[C@@H]2OP(=O)(O)O)cc1)C(=O)O [Compound I-1-CoA, 6-[4-(5-carboxy-5-methylhexyl)-phenyl]-2,2-dimethylhexanoic acid Coenzyme A ester] |  |  |  |  |  | 9.41e-06 M and 7.72e-06 M and 9.06e-06 M
